Entries after “also recorded” stand apart in the source; their conditions may differ.

The values that follow come from patent US4316884A, “Sustained release pharmaceutical formulation” (Adria Laboratories, Inc., priority 1980, dated 1982).

For data set [1] the following is noted: human, in vivo.
Data set [2] is described as follows: plasma levels of indoprofen in mice after oral gavage (HPLC-UV). In kind it is in vivo. How it is done: Plasma levels of indoprofen are determined in adult mice (22-25 g.) following oral gavage of either pure drug or microencapsulated drug. Drugs are administered at 1% of the body weight. Each treatment group in a single experiment contains four animals and the data is pooled for evaluation. Animals are sacrificed by decapitation. Blood from each treatment group is collected and pooled in heparinized tubes. Plasma is collected and frozen for assay of indoprofen concentration. Plasma indoprofen concentration is determined by high pressure liquid chromatography fitted with a UV detector; concentration is determined at max. 284 nm.
Plasma Level (μg/ml) of Indoprofen in Mice,
Administered Orally as a Suspension*
*Aqueous suspension containing 0.5% methylcellulose and 0.06% surface
^a The apparent rate of elimination, Ke is calculated using a on
compartment open model system as described by J. G. Wagner
Biopharmaceutics and Relevant Pharmacokinetics, page 180, Hamilton Press

The conditions of data set [3]: acidic pH of the stomach, unionized; cited from earlier work.
Data set [4] in a line: clinical analgesic/anti-inflammatory efficacy and side effects in man. The data set is classed as in vivo. How it is done:
The analgesic dose for indoprofen in man is low in comparison to the anti-inflammatory dose, i.e., in the order of 100 to 600 mg. per day.
However, the dose necessary for indoprofen to exert an anti-inflammatory activity is higher than the analgesic dose, i.e., in the order of 800 to 1200 mg. per day. […] At this dose gastrointestinal ulceration and other side effects are […].

The conditions of data set [5]: humans; cited from earlier work.
For data set [6] the following is noted: in vivo; cited from earlier work.

For orientation: half-life means how long it takes for the measured level to halve. Lower therefore signals fast loss. With `CC(C(=O)O)c1ccc(N2Cc3ccccc3C2=O)cc1` (stereo not drawn) [indoprofen, alpha-[4-(1-oxo-2-isoindolinyl)-phenyl]propionic acid], in data set [1], the “plasma peak height and bioavailability (total area under the plasma curve) as dose is increased” value was “increases in a linear fashion”. In addition, the half-life in data set [2] (mouse, plasma, oral suspension) was 5.4 h. Moreover, the concentration at 2 h in data set [2] (mouse, plasma, oral suspension, 2 hours, mean and standard error, read-out: Plasma Level of Indoprofen) came out at 2490 ± 450 ng/mL. For the same compound, the concentration at 4 h in data set [2] (mouse, plasma, oral suspension, 4 hours, mean and standard error, read-out: Plasma Level of Indoprofen) came out at 1620 ± 150 ng/mL. The concentration at 8 h in data set [2] (mouse, plasma, oral suspension, 8 hours, mean and standard error, read-out: Plasma Level of Indoprofen) was found to be 890 ± 240 ng/mL. For the same compound, in data set [2] (mouse, plasma, oral suspension, 16 hours, mean and standard error, read-out: Plasma Level of Indoprofen), the concentration at 16 h stood at 490 ± 170 ng/mL. The concentration at 32 h in data set [2] (mouse, plasma, oral suspension, 32 hours, mean and standard error, read-out: Plasma Level of Indoprofen) worked out at 430 ng/mL. Further, in data set [2] (mouse, plasma, oral suspension, one compartment open model, read-out: Ke, apparent rate of elimination (converted)), the k el is 3.54e-05 s⁻¹. Besides, the AUC in data set [2] (mouse, plasma, oral, 1% of the body weight, read-out: area under the plasma curve) came out at 24500 ng·h/mL. The Cmax in data set [2] (mouse, plasma, oral, 1% of the body weight, read-out: plasma peak height) came to 2500 ng/mL. Besides, in data set [2] (oral), the “bioavailability, pure drug versus microencapsulated form” value is “bioequivalent; also recorded: equivalent bioavailability”. Moreover, in data set [2] (oral, listed as pure drug), the “plasma peak height, pure drug relative to microencapsulated drug” value was “two times that of microencapsulated form; also recorded: two times that of the microencapsulated drug”. Also, the solubility entry in data set [3] is recorded as “poorly soluble”. For the same compound, the “safety in prolonged therapy” value in data set [4] (clinical studies, above 800 mg., especially 1200 mg., per day) is reported as “has not been shown to be safe for prolonged therapy”. For the same compound, the safety classification entry in data set [4] (clinical studies, up to 800 mg. per day) is listed as “safe dose”. Also, in data set [4] (man, 800 mg. per day), the effectiveness in osteoarthritis entry is “effective in the treatment of osteoarthritis”; the “gastrointestinal ulceration and other side effects” value is on record as “minimal”. Also, in data set [4] (man, 1200 mg. per day), the “effectiveness in rheumatoid arthritis” value was “effective in the treatment of rheumatoid arthritis”; the “gastrointestinal ulceration and other side effects” value was “the incidence of gastrointestinal ulceration and other side effects are recognized”. In data set [4] (man, 100 to 600 mg. per day), the analgesic effect result is recorded as “maximum analgesic effect” and the side effects entry is given as “minimal or negligible side effects”. For the same compound, the “plasma half-life (t 1/2)” value in data set [5] is 2.1 to 5.4 h. For the same compound, the “anti-inflammatory and analgesic properties” value in data set [6] is “excellent anti-inflammatory and analgesic properties”.
